Earlier results on 1 compound are cited in PubChem BioAssay AID1259409 (Chemical Carcinogenesis Research Information System (CCRIS), 2018).

The test system of this data set is rodent chemically induced tumor inhibition, incidence and multiplicity. Briefly: CCRIS tumor inhibitor studies. To be noted: Route [Inhibitor]: ORAL, Promoter: NONE USED. The source says:
The CCRIS database contains chemical records with carcinogenicity, mutagenicity, tumor promotion, and tumor inhibition test results. It was developed by the National Cancer Institute (NCI). Data are derived from studies cited in primary journals, current awareness tools, NCI reports, and other sources. Test results have been reviewed by experts in carcinogenesis and mutagenesis.
CCRIS provides historical information from the years 1985 - 2011. It is no longer updated.
This is an archive assay for CCRIS tumor inhibitor studies.

Take `CC1=C(/C=C/C(C)=C/C=C/C(C)=C/C(=O)NCCO)C(C)(C)CCC1`: the “tumour outcome (control, treated, inhibition, significance)” value reads like this: (Carcinogen: N-(4-(5-NITRO-2-FURYL)-2-THIAZOLYL)FORMAMIDE, 24554-26-5, Dose [Inhibitor]: 686 MG/KG/D IN DIET FOR 39 WK STARTING 1 WK POST CARCINOGEN TREATMENT (STUDY DURATION: 50 WK), Species: RAT, Strain/Sex: F344/FEMALE, Target Tissue: Type of Lesion: URINARY BLADDER: CARCINOMA, Dose [Carcinogen]: 2 G/KG/D IN DIET FOR 10 WK) 105/200 (53%), 49/100 (49%), 8%, p<0.5657; (Carcinogen: N-(4-(5-NITRO-2-FURYL)-2-THIAZOLYL)FORMAMIDE, 24554-26-5, Dose [Inhibitor]: 686 MG/KG/D IN DIET FOR 39 WK STARTING 1 WK POST CARCINOGEN TREATMENT (STUDY DURATION: 50 WK), Species: RAT, Strain/Sex: F344/FEMALE, Target Tissue: Type of Lesion: URINARY BLADDER: PAPILLOMA, Dose [Carcinogen]: 2 G/KG/D IN DIET FOR 10 WK) 15/200 (7.5%), 17/100 (17%), -127%, p<0.012; (Carcinogen: N-BUTYL-N-(4-HYDROXYBUTYL)NITROSAMINE, 3817-11-6, Dose [Inhibitor]: 0.5 MMOL/KG DIET DAILY FOR 16 WK STARTING 7 D AFTER FINAL CARCINOGEN DOSE (STUDY DURATION: 6 MO), Species: MOUSE, Strain/Sex: B6D2F1/MALE, Target Tissue: Type of Lesion: URINARY BLADDER: CARCINOMA, Dose [Carcinogen]: 5 OR 10 MG 2/WK FOR 9 WK) 36/97 (37%), 22/75 (29%), 22%, not significant; (Carcinogen: N-BUTYL-N-(4-HYDROXYBUTYL)NITROSAMINE, 3817-11-6, Dose [Inhibitor]: 1 MMOL/KG DIET DAILY FOR 16 WK STARTING 7 D AFTER FINAL CARCINOGEN DOSE (STUDY DURATION: 6 MO), Species: MOUSE, Strain/Sex: B6D2F1/MALE, Target Tissue: Type of Lesion: URINARY BLADDER: CARCINOMA, Dose [Carcinogen]: 5 OR 10 MG 2/WK FOR 9 WK) 36/97 (37%), 17/77 (22%), 41%, p<0.025; (Carcinogen: N-BUTYL-N-(4-HYDROXYBUTYL)NITROSAMINE, 3817-11-6, Dose [Inhibitor]: 1 MMOL/KG DIET DAILY FOR 108 D STARTING ONE WK AFTER THE FINAL CARCINOGEN DOSE (STUDY DURATION: 171 D), Species: MOUSE, Strain/Sex: BDF1/MALE, Target Tissue: Type of Lesion: URINARY BLADDER: TRANSITIONAL CELL CARCINOMA, Dose [Carcinogen]: 5 MG 2/WK FOR 9 WK) 31/55 (56%), 19/55 (35%), 38%, p<0.05; (Carcinogen: N-BUTYL-N-(4-HYDROXYBUTYL)NITROSAMINE, 3817-11-6, Dose [Inhibitor]: 1 MMOL/KG DIET DAILY FOR 159 D STARTING ONE WK AFTER THE FINAL CARCINOGEN DOSE (STUDY DURATION: 216 D), Species: MOUSE, Strain/Sex: BDF1/MALE, Target Tissue: Type of Lesion: URINARY BLADDER: TRANSITIONAL CELL CARCINOMA, Dose [Carcinogen]: 7.5 MG 1/WK FOR 8 WK) 29/98 (30%), 14/95 (15%), 50%, p<0.05. In addition, the “tumour outcome (control, treated, inhibition, significance)” value runs as follows: (Carcinogen: N-BUTYL-N-(4-HYDROXYBUTYL)NITROSAMINE, 3817-11-6, Dose [Inhibitor]: 1.0 MMOL/KG/D IN DIET FOR 108 D STARTING 1 WK POST CARCINOGEN TREATMENT (STUDY DURATION: 171 D), Species: MOUSE, Strain/Sex: DBF1/MALE, Target Tissue: Type of Lesion: URINARY BLADDER: TRANSITIONAL CELL CARCINOMA, Dose [Carcinogen]: 5 MG 2/WK FOR 9 WK) 31/55 (56%), 19/55 (35%), 38%, p<0.05; (Carcinogen: N-BUTYL-N-(4-HYDROXYBUTYL)NITROSAMINE, 3817-11-6, Dose [Inhibitor]: 1.0 MMOL/KG/D IN DIET FOR 159 D STARTING 1 WK POST CARCINOGEN TREATMENT (STUDY DURATION: 216 D), Species: MOUSE, Strain/Sex: DBF1/MALE, Target Tissue: Type of Lesion: URINARY BLADDER: TRANSITIONAL CELL CARCINOMA, Dose [Carcinogen]: 7.5 MG 1/WK FOR 8 WK) 29/98 (30%), 14/95 (15%), 50%, p<0.05; (Carcinogen: N-BUTYL-N-(4-HYDROXYBUTYL)NITROSAMINE, 3817-11-6, Dose [Inhibitor]: 2 MMOL/KG DIET DAILY FOR 17 WK STARTING 7 D AFTER FINAL CARCINOGEN DOSE (STUDY DURATION: 6 MO), Species: RAT, Strain/Sex: F344/MALE, Target Tissue: Type of Lesion: URINARY BLADDER: TRANSITIONAL CELL CARCINOMA, Dose [Carcinogen]: 200 MG 2/WK FOR 8 WK) 55/60 (92%), 19/30 (63%), 32%, p<0.01; (Carcinogen: N-BUTYL-N-(4-HYDROXYBUTYL)NITROSAMINE, 3817-11-6, Dose [Inhibitor]: 2 MMOL/KG DIET DAILY FOR 19 WK STARTING 7 D AFTER FINAL CARCINOGEN DOSE (STUDY DURATION: 6 MO), Species: RAT, Strain/Sex: F344/FEMALE, Target Tissue: Type of Lesion: URINARY BLADDER: TRANSITIONAL CELL CARCINOMA, Dose [Carcinogen]: 150 MG 2/WK FOR 6 WK) 28/80 (35%), 5/40 (12%), 66%, p<0.01; (Carcinogen: N-METHYL-N-NITROSOUREA, 684-93-5, Dose [Inhibitor]: 2 MMOL/KG DIET DAILY STARTING 12 D AFTER CARCINOGEN TREATMENT THROUGH ABOUT 8 MO AFTER CARCINOGEN DOSE (STUDY DURATION:, Species: RAT, Strain/Sex: F344/MALE, Target Tissue: Type of Lesion: COLON: ADENOCARCINOMA, Dose [Carcinogen]: 2.5 MG 1/WK FOR 2 WK) 5/39 (13%), 5/30 (17%), -31%, not significant.
